Laboratory results: PubChem BioAssay (NCI)
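Five compound concentrations were applied to cells in 96-well plates for 48 hours; endpoints were derived by simple linear interpolation of the resulting dose-response curve. Definition used: TGI = concentration required for complete inhibition of growth.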

Tests used:
Test in all cases: inhibition of tumour cell growth, NCI panel, 48 h
[1] = system: HCT-116 colon
[2] = system: SK-MEL-28 melanoma
[3] = system: HOP-92 NSCLC
[4] = system: CAKI-1 renal
[5] = system: OVCAR-8 ovarian
[6] = system: SK-OV-3 ovarian
[7] = system: RXF-631 renal
[8] = system: EKVX NSCLC
[9] = system: UACC-257 melanoma
[10] = system: LOX IMVI melanoma
[11] = system: SN12C renal
[12] = system: HCT-15 colon
[13] = system: UACC-62 melanoma
[14] = system: SF-268 CNS
[15] = system: M19-MEL melanoma
[16] = system: UO-31 renal
[17] = system: M14 melanoma
[18] = system: SNB-75 CNS
[19] = system: OVCAR-4 ovarian
[20] = system: 786-0 renal
[21] = system: A498 renal
[22] = system: XF 498 CNS
[23] = system: K-562 leukemia
[24] = system: RXF 393 renal
[25] = system: SNB-78 CNS
[26] = system: DMS 114 small cell lung
[27] = system: SK-MEL-5 melanoma
[28] = system: RPMI-8226 leukemia
[29] = system: SW-620 colon
[30] = system: HCC-2998 colon
[31] = system: SR leukemia
[32] = system: SF-295 CNS
[33] = system: SK-MEL-2 melanoma
[34] = system: U251 CNS
[35] = system: COLO 205 colon
[36] = system: TK-10 renal
[37] = system: OVCAR-3 ovarian
[38] = system: HL-60(TB) leukemia
[39] = system: SNB-19 CNS
[40] = system: MOLT-4 leukemia
[41] = system: DMS 273 small cell lung
[42] = system: DLD-1 colon
[43] = system: NCI-H522 lung
[44] = system: KM12 colon
[45] = system: ACHN renal
[46] = system: KM20L2 colon
[47] = system: HOP-62 NSCLC
[48] = system: NCI-H460 lung
[49] = system: LXFL 529 NSCLC
[50] = system: A549 NSCLC
[51] = system: CCRF-CEM leukemia
[52] = system: HOP-18 NSCLC
[53] = system: IGROV1 ovarian
[54] = system: SF-539 CNS
[55] = system: HT29 colon
[56] = system: NCI-H23 lung
[57] = system: MALME-3M melanoma
[58] = system: NCI-H226 lung

Cn1ccnc1Cn1cc(-c2cccc(-c3cn[nH]c3)c2)cn1
TGI [1]: > 100 µM
TGI [2]: > 100 µM
TGI [3]: > 100 µM
TGI [4]: > 100 µM
TGI [5]: > 100 µM
TGI [6]: 41.9 µM
TGI [7]: > 100 µM
TGI [8]: 99.8 µM
TGI [9]: > 100 µM
TGI [10]: > 100 µM
TGI [11]: > 100 µM
TGI [12]: > 100 µM
TGI [13]: 49 µM
TGI [14]: > 100 µM
TGI [15]: > 100 µM
TGI [16]: > 100 µM
TGI [17]: > 100 µM
TGI [18]: > 100 µM
TGI [19]: > 100 µM
TGI [20]: > 100 µM
TGI [21]: > 100 µM
TGI [22]: > 100 µM
TGI [23]: > 100 µM
TGI [24]: > 100 µM
TGI [25]: > 100 µM
TGI [26]: > 100 µM
TGI [27]: > 100 µM
TGI [28]: > 100 µM
TGI [29]: > 100 µM
TGI [30]: > 100 µM
TGI [31]: > 100 µM
TGI [32]: > 100 µM
TGI [33]: > 100 µM
TGI [34]: > 100 µM
TGI [35]: > 100 µM
TGI [36]: > 100 µM
TGI [37]: > 100 µM
TGI [38]: > 100 µM
TGI [39]: > 100 µM
TGI [40]: > 100 µM
TGI [41]: > 100 µM
TGI [42]: > 100 µM
TGI [43]: > 100 µM
TGI [44]: > 100 µM
TGI [45]: > 100 µM
TGI [46]: > 100 µM
TGI [47]: > 100 µM
TGI [48]: > 100 µM
TGI [49]: > 100 µM
TGI [50]: > 100 µM
TGI [51]: > 100 µM

CC#C[C@@]1(O)CCCCC1O (stereo not given in full)
TGI [1]: > 100 µM
TGI [2]: > 100 µM
TGI [52]: > 100 µM
TGI [3]: > 100 µM
TGI [53]: > 100 µM
TGI [5]: > 100 µM
TGI [6]: > 100 µM
TGI [54]: > 100 µM
TGI [7]: > 100 µM
TGI [8]: > 100 µM
TGI [9]: > 100 µM
TGI [55]: > 100 µM
TGI [56]: > 100 µM
TGI [10]: > 100 µM
TGI [11]: > 100 µM
TGI [12]: > 100 µM
TGI [13]: > 100 µM
TGI [14]: > 100 µM
TGI [15]: > 100 µM
TGI [16]: > 100 µM
TGI [17]: > 100 µM
TGI [18]: > 100 µM
TGI [19]: > 100 µM
TGI [20]: > 100 µM
TGI [21]: > 100 µM
TGI [22]: > 100 µM
TGI [23]: > 100 µM
TGI [24]: > 100 µM
TGI [25]: > 100 µM
TGI [26]: > 100 µM
TGI [27]: > 100 µM
TGI [28]: > 100 µM
TGI [29]: > 100 µM
TGI [30]: > 100 µM
TGI [32]: > 100 µM
TGI [33]: > 100 µM
TGI [34]: > 100 µM
TGI [35]: > 100 µM
TGI [36]: > 100 µM
TGI [57]: > 100 µM
TGI [37]: > 100 µM
TGI [38]: > 100 µM
TGI [39]: > 100 µM
TGI [40]: > 100 µM
TGI [41]: > 100 µM
TGI [43]: > 100 µM
TGI [44]: > 100 µM
TGI [45]: > 100 µM
TGI [46]: > 100 µM
TGI [47]: > 100 µM
TGI [48]: > 100 µM
TGI [58]: > 100 µM
TGI [50]: > 100 µM
TGI [51]: > 100 µM
